{"source": "patent US20140243239A1", "about": "“MULTIPLEXED KINASE INHIBITOR BEADS AND USES THEREOF” (University of North Carolina at Chapel Hill, priority 2011, published 2014)", "key": {"SUM159-R cells": {"system": "SUM159-R cells", "experiment": "Growth of AZD6244-resistant SUM159-R cells", "format": "cell-based, human", "details": "25 μM AZD6244", "method": "(§1) Cell Culture: MDA-MB-231 cells were grown in DMEM/F12 supplemented with 10% FBS. SUM-159 cells were grown in DMEM/F12 supplemented with 10% FBS 1 μg/mL hydrocortisone, and 5 μg/mL insulin. SUM159-R cells were continually grown in the presence of 5 μM AZD6244. For SILAC labeling, cells were grown for five doublings in arginine- and lysine-depleted media (as above) supplemented with either unlabeled L-arginine (42 mg/L) and L-lysine (71 mg/L) or equimolar amounts of heavy isotope labeled [13C6,15N4]arginine (Arg10) and [13C6]lysine (Lys6) (Cambridge Isotope Laboratories). Proliferation was quantified using Cell-Titer Glo Luminescent Cell Viability Assay (Promega). Fresh media containing DMSO or kinase inhibitors was added daily and experiments were performed in triplicate.\nGeneration of AZD6244 resistant SUM159 cells: SUM159 cells were cultured in DMEM/F12 supplemented with 10% FBS media containing 5 μM AZD6244. Media was changed every 2 days, maintaining inhibitor concentrations of 5 μM AZD6244."}, "SUM159 cells": {"system": "SUM159 cells", "experiment": "SUM159 cell growth (Cell-Titer Glo, cell counts)", "format": "cell-based, human", "details": "5 μM MEK inhibitor (FIG. 2A)", "method": "as §1"}, "ERK": {"system": "ERK", "experiment": "MEK/ERK activation in C3Tag tumors (western blot)", "format": "in vivo, mouse", "details": "AZD6244 20 mg/kg 28 days; sorafenib 30 mg/kg 26 days", "method": "(§2) Treatment began the same day. Tumor size was assessed twice weekly by caliper measurements of tumor areas ((width)2×length))/2 for 21 days. […] Drugs were incorporated into the diet of mice to achieve a daily dose of AZD6244 20 mg/kg and sorafenib 30 mg/kg. […] Tumors at harvest were cut in half and either snap-frozen in liquid nitrogen and stored at −80° C. or placed in neutral buffered 10% formalin solution.\nWestern blotting: Proteins from cell lysates were separated by SDS-PAGE chromatography, transferred to nitrocellulose membranes, and probed with the indicated primary antibodies. Antibodies recognizing pAKT (S473), pAKT (T308), AURA, pAXL (Y702), AXL, c-Myc, DDR1, EGFR, pERK1/2 (T202/Y204), pHER3 (Y1197), MAX, pMEK1/2 (S217/S221), MEK1/2, MKP3, pP70S6K (T389), pPDGFRβ (Y751), pPDGFRβ (Y1009), pPDGFR (Y857), PDGFRβ, pRAF (S338), pRSK1 (T359/S363), pVEGFR2 (Y1175), VEGFR2 were obtained from Cell Signaling Technology. Antibodies for Cyclin A2, Cyclin B1, Cyclin D1, ERK2, RAF, and pRAF (S259) were obtained from Santa Cruz Biotechnology. The antibody recognizing Bim was obtained from Chemicon. The antibody recognizing p-c-Myc (S62) was obtained from Abeam. Secondary HRP-anti-rabbit and HRP-anti-goat secondary antibodies were from Jackson Immunoresearch Laboratories and Santa Cruz Biotechnology, respectively. […]"}, "c-Myc": {"system": "c-Myc", "experiment": "c-Myc protein and RNA levels in SUM159 cells (western blot, qRT-PCR)", "format": "cell-based, human", "details": "5 μM AZD6244", "method": "Western blotting and RTK arrays: Western blotting and RTK array analysis were performed as previously described (Amin et al., 2010). Amin et al. 2010 Sci Transl Med 2, 16ra17. Detailed methods and antibodies are provided in Supplemental Experimental Procedures.\nqRT-PCR: Total RNA was isolated from human breast cancer cell lines or murine tumors using the RNeasy® Plus Mini Kit (Qiagen). Real-time RT-PCR was performed on diluted cDNA using the Applied Biosystems 7500 Fast Real-Time PCR System (standard program) and inventoried TaqMan® Gene Expression Assays. Each cDNA sample was assayed in triplicate. Fold change with respect to the calibrator represents the average of the triplicate values, with error bars representing the range of the mean (95% confidence).\n(§3) Western blotting: Proteins from cell lysates were separated by SDS-PAGE chromatography, transferred to nitrocellulose membranes, and probed with the indicated primary antibodies. Antibodies recognizing pAKT (S473), pAKT (T308), AURA, pAXL (Y702), AXL, c-Myc, DDR1, EGFR, pERK1/2 (T202/Y204), pHER3 (Y1197), MAX, pMEK1/2 (S217/S221), MEK1/2, MKP3, pP70S6K (T389), pPDGFRβ (Y751), pPDGFRβ (Y1009), pPDGFR (Y857), PDGFRβ, pRAF (S338), pRSK1 (T359/S363), pVEGFR2 (Y1175), VEGFR2 were obtained from Cell Signaling Technology. Antibodies for Cyclin A2, Cyclin B1, Cyclin D1, ERK2, RAF, and pRAF (S259) were obtained from Santa Cruz Biotechnology. The antibody recognizing Bim was obtained from Chemicon. The antibody recognizing p-c-Myc (S62) was obtained from Abeam. Secondary HRP-anti-rabbit and HRP-anti-goat secondary antibodies were from Jackson Immunoresearch Laboratories and Santa Cruz Biotechnology, respectively. Western blots were visualized by incubation with SuperSignal West Pico Chemiluminescent Substrate (Thermo Scientific)."}, "RTKs": {"system": "RTKs", "experiment": "RTK expression in C3Tag tumors (western blot)", "format": "in vivo, mouse", "method": "as §2, §3"}}, "data": [{"smiles": "Cn1cnc2c(F)c(Nc3ccc(Br)cc3Cl)c(C(=O)NOCCO)cc21", "note": "[AZD6244]", "values": [{"measurement": "growth of SUM159-R cells", "setting": "SUM159-R cells", "value": "growth arrested"}, {"measurement": "growth of SUM159 cells", "setting": "SUM159 cells", "value": "inhibited growth"}, {"measurement": "tumor MEK and ERK compared to untreated animals", "setting": "ERK", "value": "strongly activated"}, {"measurement": "c-Myc protein and mRNA", "setting": "c-Myc", "value": "rapid loss of c-Myc protein and c-Myc mRNA"}, {"measurement": "expression of RTKs in C3Tag tumors versus untreated", "setting": "RTKs; AZD6244 20 mg/kg 28 days, sorafenib 30 mg/kg 26 days", "value": "elevated"}, {"measurement": "PDGFRβ expression in C3Tag tumors", "setting": "RTKs; AZD6244 20 mg/kg, 2 and 7 days", "value": "strongly induced"}]}]}
